According to ChEMBL document CHEMBL4152219, “Discovery of 1,8-acridinedione derivatives as novel GCN5 inhibitors via high throughput screening” (Eur J Med Chem, 2018):
The source made the active and inactive calls. The calls are words filed in the database; no cut-off is given here.

How the values were obtained:
[1] = biological target: T1, Histone acetyltransferase GCN5 (Saccharomyces cerevisiae S288c, UniProt Q03330); assay: Inhibition of yeast GCN5 (99 to 262 residues) expressed in Escherichia coli BL21 (DE3) preincubated for 15 mins followed by biotin tagged H3 peptide ( 1 to 23 residues) and [3H]-Ac-CoA addition and measured after 60 mins by radioactive acetylation assay
[2] = biological target: Histone acetyltransferase GCN5 (Saccharomyces cerevisiae S288c) (UniProt Q03330); assay: Inhibition of yeast GCN5 (99 to 262 residues) expressed in Escherichia coli BL21 (DE3) at 100 uM using biotin tagged H3 peptide ( 1 to 23 residues) as substrate preincubated for 30 mins followed by AC-CoA and substrate addition and measured after 30 mins by AlphaScreen assay
[3] = biological target: Histone acetyltransferase GCN5 (Saccharomyces cerevisiae S288c) (UniProt Q03330); assay: Inhibition of yeast GCN5 (99 to 262 residues) expressed in Escherichia coli BL21 (DE3) at 33 uM preincubated for 15 mins followed by biotin tagged H3 peptide ( 1 to 23 residues) and [3H]-Ac-CoA addition and measured after 60 mins by radioactive acetylation assay
[4] = system: MV4-11; assay: Antiproliferative activity against human MV4-11 cells after 3 days by celltiter-glo luminescent assay; assay type: functional, cell-based; details: for IC50: MV4-11, 72 h
[5] = biological target: Histone acetyltransferase KAT2A (Homo sapiens) (UniProt Q92830); assay: Inhibition of GCN5 in human MV4-11 cells assessed as reduction of acetylated H3K14 level up to 100 uM after 24 hrs by Western blot analysis; assay type: cell-based
[6] = biological target: T1, Histone acetyltransferase GCN5; assay: Binding affinity to yeast GCN5 (99 to 262 residues) expressed in Escherichia coli BL21 (DE3) by SPR analysis
[7] = system: HUVEC; assay: Antiproliferative activity against HUVEC after 3 days by celltiter-glo luminescent assay; assay type: cell-based; details: human, 72 h
[8] = Antiproliferative activity against human […] cells after 3 days by celltiter-glo luminescent assay; assay type: cell-based; details: 72 h
[9] = system: MV4-11; assay: Induction of apoptosis in human MV4-11 cells after 72 hrs by Annexin-V FITC/propidium iodide staining based flow cytometric analysis; assay type: functional, cell-based
[10] = system: MV4-11; assay: Induction of apoptosis in human MV4-11 cells assessed as early apototic cells at 20 uM after 72 hrs by Annexin-V FITC/propidium iodide staining based flow cytometric analysis (reference value: 0.75%); assay type: functional
[11] = system: MV4-11; assay: Induction of apoptosis in human MV4-11 cells assessed as late apototic cells at 20 uM after 72 hrs by Annexin-V FITC/propidium iodide staining based flow cytometric analysis (reference value: 3.41%); assay type: functional
[12] = system: MV4-11; assay: Induction of apoptosis in human MV4-11 cells assessed as necrotic cells at 20 uM after 72 hrs by Annexin-V FITC/propidium iodide staining based flow cytometric analysis (reference value: 0.66%); assay type: functional
[13] = system: MV4-11; assay: Induction of apoptosis in human MV4-11 cells assessed as viable cells at 20 uM after 72 hrs by Annexin-V FITC/propidium iodide staining based flow cytometric analysis (reference value: 95.2%); assay type: functional; details: MV4-11, 72 h, read-out: Activity
[14] = system: MV4-11; assay: Induction of apoptosis in human MV4-11 cells assessed as early apototic cells at 40 uM after 72 hrs by Annexin-V FITC/propidium iodide staining based flow cytometric analysis (reference value: 0.75%); assay type: functional
[15] = system: MV4-11; assay: Induction of apoptosis in human MV4-11 cells assessed as late apototic cells at 40 uM after 72 hrs by Annexin-V FITC/propidium iodide staining based flow cytometric analysis (reference value: 3.41%); assay type: functional
[16] = system: MV4-11; assay: Induction of apoptosis in human MV4-11 cells assessed as necrotic cells at 40 uM after 72 hrs by Annexin-V FITC/propidium iodide staining based flow cytometric analysis (reference value: 0.66%); assay type: functional
[17] = system: MV4-11; assay: Induction of apoptosis in human MV4-11 cells assessed as viable cells at 40 uM after 72 hrs by Annexin-V FITC/propidium iodide staining based flow cytometric analysis (reference value: 95.2%); assay type: functional; details: MV4-11, 72 h, read-out: Activity
[18] = system: MV4-11; assay: Cell cycle arrest in human MV4-11 cells accumulation at G0/G1 phase after 24 hrs bby propidium iodide staining-based flow cytometric analysis; assay type: functional
[19] = system: MV4-11; assay: Cell cycle arrest in human MV4-11 cells accumulation at G1 phase at 12.5 uM after 24 hrs bby propidium iodide staining-based flow cytometric analysis (reference value: 52.56%); assay type: functional
[20] = system: MV4-11; assay: Cell cycle arrest in human MV4-11 cells accumulation at S phase at 12.5 uM after 24 hrs bby propidium iodide staining-based flow cytometric analysis (reference value: 42.77%); assay type: functional
[21] = system: MV4-11; assay: Cell cycle arrest in human MV4-11 cells accumulation at G2 phase at 12.5 uM after 24 hrs bby propidium iodide staining-based flow cytometric analysis (reference value: 4.68%); assay type: functional
[22] = system: MV4-11; assay: Cell cycle arrest in human MV4-11 cells accumulation at G1 phase at 25 uM after 24 hrs bby propidium iodide staining-based flow cytometric analysis (reference value: 52.56%); assay type: functional
[23] = system: MV4-11; assay: Cell cycle arrest in human MV4-11 cells accumulation at S phase at 25 uM after 24 hrs bby propidium iodide staining-based flow cytometric analysis (reference value: 42.77%); assay type: functional
[24] = system: MV4-11; assay: Cell cycle arrest in human MV4-11 cells accumulation at G2 phase at 25 uM after 24 hrs bby propidium iodide staining-based flow cytometric analysis (reference value: 4.68%); assay type: functional
[25] = biological target: Histone acetyltransferase p300 (Homo sapiens) (UniProt Q09472); assay: Inhibition of p300 (unknown origin) at 33 uM relative to control
[26] = biological target: Histone-lysine N-methyltransferase EZH2 (Homo sapiens) (UniProt Q15910); assay: Inhibition of EZH2 (unknown origin) at 33 uM relative to control
[27] = biological target: T2, Histone-lysine N-methyltransferase EHMT2 (Homo sapiens) (UniProt Q96KQ7); assay: Inhibition of G9a (unknown origin) at 33 uM relative to control
T2 sequence (whole entry): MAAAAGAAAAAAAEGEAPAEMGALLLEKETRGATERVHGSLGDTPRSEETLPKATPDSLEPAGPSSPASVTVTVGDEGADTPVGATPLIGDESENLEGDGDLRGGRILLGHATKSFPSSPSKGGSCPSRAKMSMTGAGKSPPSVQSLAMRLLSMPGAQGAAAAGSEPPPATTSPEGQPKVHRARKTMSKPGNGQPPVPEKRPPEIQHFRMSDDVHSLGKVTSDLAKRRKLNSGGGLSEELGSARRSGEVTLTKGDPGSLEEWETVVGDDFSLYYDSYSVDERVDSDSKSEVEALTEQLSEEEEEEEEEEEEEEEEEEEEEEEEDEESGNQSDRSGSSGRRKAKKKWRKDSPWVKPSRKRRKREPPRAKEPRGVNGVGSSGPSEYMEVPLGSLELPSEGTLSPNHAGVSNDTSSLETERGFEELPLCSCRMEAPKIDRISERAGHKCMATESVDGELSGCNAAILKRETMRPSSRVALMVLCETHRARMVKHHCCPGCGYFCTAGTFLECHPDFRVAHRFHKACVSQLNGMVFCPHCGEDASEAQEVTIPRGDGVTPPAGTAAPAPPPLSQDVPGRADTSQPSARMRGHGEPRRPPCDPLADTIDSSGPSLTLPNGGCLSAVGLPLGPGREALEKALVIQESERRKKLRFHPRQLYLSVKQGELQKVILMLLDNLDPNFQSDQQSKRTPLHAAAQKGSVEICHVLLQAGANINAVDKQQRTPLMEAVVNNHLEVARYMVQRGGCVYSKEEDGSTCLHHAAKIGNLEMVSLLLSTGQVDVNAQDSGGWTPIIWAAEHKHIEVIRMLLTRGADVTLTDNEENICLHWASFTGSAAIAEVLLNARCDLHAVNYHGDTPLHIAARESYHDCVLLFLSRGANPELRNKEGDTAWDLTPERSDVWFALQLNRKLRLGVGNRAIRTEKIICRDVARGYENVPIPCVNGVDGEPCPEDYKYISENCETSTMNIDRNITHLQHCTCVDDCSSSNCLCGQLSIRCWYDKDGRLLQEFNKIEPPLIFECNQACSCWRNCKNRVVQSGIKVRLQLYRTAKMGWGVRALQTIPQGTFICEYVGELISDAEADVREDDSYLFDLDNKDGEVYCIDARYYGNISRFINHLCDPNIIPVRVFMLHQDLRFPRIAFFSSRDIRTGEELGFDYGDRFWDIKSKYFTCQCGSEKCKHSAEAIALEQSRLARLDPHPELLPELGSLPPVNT

[28] = biological target: Histone acetyltransferase GCN5 (Saccharomyces cerevisiae S288c) (UniProt Q03330); assay: Binding affinity to yeast GCN5 (99 to 262 residues) expressed in Escherichia coli BL21 (DE3) at 200 uM by CPMG NMR spectroscopy
[29] = biological target: Histone acetyltransferase GCN5 (Saccharomyces cerevisiae S288c) (UniProt Q03330); assay: Binding affinity to yeast GCN5 (99 to 262 residues) expressed in Escherichia coli BL21 (DE3) at 200 uM by STD NMR spectroscopy

T1 sequence (Q03330 whole entry, the tested form may be a part): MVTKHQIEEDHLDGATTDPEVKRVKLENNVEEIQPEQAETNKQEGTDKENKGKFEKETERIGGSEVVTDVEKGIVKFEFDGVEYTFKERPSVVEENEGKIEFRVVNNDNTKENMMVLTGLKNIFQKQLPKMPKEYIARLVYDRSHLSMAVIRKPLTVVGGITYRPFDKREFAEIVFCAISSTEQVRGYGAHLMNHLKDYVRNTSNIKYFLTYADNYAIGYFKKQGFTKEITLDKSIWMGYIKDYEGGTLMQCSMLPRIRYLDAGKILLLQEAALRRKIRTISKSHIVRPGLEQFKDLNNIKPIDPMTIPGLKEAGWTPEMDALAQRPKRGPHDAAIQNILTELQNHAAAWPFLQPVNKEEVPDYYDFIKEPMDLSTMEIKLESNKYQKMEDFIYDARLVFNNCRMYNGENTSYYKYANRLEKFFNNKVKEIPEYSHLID
Chain of Histone acetyltransferase GCN5 (Saccharomyces cerevisiae S288c) (Q03330 whole entry, the tested form may be a part): as above
Chain of Histone acetyltransferase KAT2A (Homo sapiens) (Q92830 2-837 limits assumed): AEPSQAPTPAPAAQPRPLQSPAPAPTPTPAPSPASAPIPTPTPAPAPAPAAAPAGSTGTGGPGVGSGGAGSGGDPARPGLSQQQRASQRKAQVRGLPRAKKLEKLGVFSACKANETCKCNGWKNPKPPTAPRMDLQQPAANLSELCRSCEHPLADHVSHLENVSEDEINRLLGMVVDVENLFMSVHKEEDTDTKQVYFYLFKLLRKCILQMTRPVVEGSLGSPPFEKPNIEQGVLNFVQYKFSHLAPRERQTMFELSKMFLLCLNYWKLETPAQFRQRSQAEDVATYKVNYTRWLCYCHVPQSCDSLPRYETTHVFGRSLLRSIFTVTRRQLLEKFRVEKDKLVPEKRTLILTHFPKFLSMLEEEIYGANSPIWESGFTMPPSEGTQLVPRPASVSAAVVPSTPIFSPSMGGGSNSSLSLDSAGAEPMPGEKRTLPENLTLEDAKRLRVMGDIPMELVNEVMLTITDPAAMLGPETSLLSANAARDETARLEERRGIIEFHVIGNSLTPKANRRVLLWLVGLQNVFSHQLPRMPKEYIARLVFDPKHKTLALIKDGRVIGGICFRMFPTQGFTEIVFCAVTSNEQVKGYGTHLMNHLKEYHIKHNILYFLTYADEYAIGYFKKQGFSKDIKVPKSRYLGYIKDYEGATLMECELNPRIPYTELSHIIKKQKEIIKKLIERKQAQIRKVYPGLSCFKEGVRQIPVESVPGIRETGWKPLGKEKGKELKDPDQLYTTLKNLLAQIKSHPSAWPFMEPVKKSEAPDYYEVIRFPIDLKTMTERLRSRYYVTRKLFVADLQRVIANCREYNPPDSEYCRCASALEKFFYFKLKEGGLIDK
Chain of Histone-lysine N-methyltransferase EZH2 (Homo sapiens) (Q15910 whole entry, looked up): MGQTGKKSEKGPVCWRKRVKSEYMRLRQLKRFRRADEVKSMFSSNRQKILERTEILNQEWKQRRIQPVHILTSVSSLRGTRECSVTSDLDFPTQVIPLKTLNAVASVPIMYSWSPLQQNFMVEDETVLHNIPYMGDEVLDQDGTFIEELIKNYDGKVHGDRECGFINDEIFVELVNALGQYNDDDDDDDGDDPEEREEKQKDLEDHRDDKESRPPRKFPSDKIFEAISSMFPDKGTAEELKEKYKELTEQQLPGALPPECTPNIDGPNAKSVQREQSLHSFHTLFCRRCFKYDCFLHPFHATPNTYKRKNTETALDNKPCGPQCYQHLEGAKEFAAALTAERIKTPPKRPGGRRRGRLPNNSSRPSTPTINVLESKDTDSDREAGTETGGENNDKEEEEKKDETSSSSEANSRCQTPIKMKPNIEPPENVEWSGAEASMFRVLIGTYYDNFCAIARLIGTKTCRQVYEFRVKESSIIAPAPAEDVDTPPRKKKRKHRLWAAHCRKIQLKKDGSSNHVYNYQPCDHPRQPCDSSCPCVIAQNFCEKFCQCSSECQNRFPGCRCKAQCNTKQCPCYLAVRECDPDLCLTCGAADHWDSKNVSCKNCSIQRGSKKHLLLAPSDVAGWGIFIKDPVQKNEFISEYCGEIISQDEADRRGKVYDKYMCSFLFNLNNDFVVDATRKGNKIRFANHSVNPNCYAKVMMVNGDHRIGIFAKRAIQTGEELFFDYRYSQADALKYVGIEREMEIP
Chain of Histone acetyltransferase p300 (Homo sapiens) (Q09472 whole entry): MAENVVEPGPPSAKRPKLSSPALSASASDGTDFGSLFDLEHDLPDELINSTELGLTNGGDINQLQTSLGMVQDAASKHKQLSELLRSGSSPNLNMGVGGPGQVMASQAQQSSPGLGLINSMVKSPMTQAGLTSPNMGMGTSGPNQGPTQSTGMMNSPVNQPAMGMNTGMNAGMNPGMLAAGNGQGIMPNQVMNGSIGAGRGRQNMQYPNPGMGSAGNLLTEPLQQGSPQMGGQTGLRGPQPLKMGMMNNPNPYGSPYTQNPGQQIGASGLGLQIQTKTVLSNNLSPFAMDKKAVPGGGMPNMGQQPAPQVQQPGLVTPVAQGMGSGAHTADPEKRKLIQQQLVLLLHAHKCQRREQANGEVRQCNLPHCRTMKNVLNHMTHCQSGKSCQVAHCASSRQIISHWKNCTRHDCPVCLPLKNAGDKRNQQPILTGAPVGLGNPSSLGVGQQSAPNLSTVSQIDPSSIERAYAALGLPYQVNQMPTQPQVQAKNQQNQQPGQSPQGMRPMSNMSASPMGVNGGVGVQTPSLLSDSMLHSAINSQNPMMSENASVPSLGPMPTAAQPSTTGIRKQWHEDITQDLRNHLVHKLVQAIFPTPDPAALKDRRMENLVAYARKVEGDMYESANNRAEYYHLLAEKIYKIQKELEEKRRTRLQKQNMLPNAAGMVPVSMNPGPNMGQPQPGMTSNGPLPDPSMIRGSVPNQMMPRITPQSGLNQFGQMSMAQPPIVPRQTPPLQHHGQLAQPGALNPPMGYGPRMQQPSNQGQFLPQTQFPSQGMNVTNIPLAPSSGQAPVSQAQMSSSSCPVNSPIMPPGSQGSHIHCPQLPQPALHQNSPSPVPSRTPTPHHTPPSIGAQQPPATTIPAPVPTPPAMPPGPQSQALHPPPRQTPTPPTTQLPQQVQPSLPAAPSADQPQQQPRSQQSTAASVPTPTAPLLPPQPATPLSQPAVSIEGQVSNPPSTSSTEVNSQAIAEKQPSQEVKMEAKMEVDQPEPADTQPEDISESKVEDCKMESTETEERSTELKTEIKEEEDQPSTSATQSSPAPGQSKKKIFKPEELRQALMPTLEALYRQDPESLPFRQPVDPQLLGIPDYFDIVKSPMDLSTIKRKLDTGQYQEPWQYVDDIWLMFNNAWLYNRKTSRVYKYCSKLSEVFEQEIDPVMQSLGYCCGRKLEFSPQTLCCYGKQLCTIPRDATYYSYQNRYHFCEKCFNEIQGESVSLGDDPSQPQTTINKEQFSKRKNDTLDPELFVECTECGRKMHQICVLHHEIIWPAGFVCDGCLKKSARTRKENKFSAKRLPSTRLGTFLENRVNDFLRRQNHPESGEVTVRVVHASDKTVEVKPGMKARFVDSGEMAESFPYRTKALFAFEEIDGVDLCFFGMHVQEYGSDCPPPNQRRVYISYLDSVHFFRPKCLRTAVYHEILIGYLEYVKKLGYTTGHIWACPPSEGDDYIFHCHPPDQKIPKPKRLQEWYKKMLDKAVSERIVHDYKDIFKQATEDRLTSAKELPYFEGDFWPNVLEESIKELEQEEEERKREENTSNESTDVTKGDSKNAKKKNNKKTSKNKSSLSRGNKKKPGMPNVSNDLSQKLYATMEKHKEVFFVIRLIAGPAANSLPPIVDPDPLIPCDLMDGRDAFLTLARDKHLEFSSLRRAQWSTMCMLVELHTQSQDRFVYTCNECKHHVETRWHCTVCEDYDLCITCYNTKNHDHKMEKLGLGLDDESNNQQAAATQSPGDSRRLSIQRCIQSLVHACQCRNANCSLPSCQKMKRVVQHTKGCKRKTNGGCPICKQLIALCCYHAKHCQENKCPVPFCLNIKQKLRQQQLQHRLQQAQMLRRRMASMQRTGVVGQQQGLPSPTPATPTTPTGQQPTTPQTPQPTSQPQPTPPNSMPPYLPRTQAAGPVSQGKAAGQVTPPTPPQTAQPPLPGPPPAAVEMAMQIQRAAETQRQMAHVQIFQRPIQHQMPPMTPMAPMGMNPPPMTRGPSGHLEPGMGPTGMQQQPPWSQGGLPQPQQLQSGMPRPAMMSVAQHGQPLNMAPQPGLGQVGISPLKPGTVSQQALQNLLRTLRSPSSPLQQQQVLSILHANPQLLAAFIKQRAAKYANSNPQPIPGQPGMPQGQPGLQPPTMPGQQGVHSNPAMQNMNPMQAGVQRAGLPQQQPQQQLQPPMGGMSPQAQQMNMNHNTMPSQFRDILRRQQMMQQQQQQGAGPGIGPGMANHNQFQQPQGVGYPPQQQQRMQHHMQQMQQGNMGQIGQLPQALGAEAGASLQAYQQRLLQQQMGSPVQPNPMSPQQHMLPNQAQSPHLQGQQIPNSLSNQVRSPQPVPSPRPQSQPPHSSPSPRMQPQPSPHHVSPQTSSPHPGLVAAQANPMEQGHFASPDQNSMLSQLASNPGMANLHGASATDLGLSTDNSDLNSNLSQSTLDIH

## COC(=O)c1cc(NC(=O)Cc2cccs2)cc(C(=O)OC)c1
[1]
  IC50: 2.9 µM
[2]
  inhibition: > 70%

## O=C1CCCC2=C1C(c1ccc(OCc3cccc(F)c3)c(Br)c1)C1=C(CCCC1=O)N2
[3]
  inhibition: 26%
[4]
  IC50: > 100 µM
[5]
  inhibition: inactive

## CN(C)CCOc1ccc(NC2Cc3ccccc3CSc3ccccc32)cc1 (stereo not drawn)
[2]
  inhibition: > 70%

## CC1(C)CC(=O)C2=C(C1)NC1=C(C(=O)CC(C)(C)C1)C2c1ccc(OCc2ccccc2)c(Br)c1
[3]
  inhibition: 15%

## N#Cc1c(-c2ccc(F)cc2)cc(-c2cccs2)nc1SCC(=O)NCC(=O)O
[1]
  IC50: 20 µM
[2]
  inhibition: > 70%

## COc1cc(CNC2CCCC2)ccc1OCC(=O)NC(C)(C)C
[2]
  inhibition: > 70%

## O=C(O)c1ccc(-c2nc3c4ccccc4c4ccccc4c3[nH]2)cc1
[1]
  IC50: 8.6 µM
[2]
  inhibition: > 70%

## CCC(=O)Nc1cccc(NC(=O)C(C)Oc2cccc(C)c2)c1 (stereo not drawn)
[2]
  inhibition: > 70%

## CC1(C)CC(=O)C2=C(C1)NC1=C(C(=O)CC(C)(C)C1)C2c1cc(Br)c(OCc2ccc(C(=O)O)cc2)c(Br)c1
[1]
  IC50: 6.8 µM
[6]
  Kd: 4.2 µM
[4]
  Activity: Dose-dependent effect
  IC50: 24.7 µM
[7]
  Activity: Non-Toxic
[8]
  Activity: Non-Toxic
[9]
  Activity: Dose-dependent effect
[10]
  Activity: 0.81%
[11]
  Activity: 16.2%
[12]
  Activity: 0.41%
[13]
  viability at 20 µM: 82.5%
[14]
  Activity: 0.7%
[15]
  Activity: 54.6%
[16]
  Activity: 2.32%
[17]
  viability at 40 µM: 42.4%
[18]
  Activity: Dose-dependent effect
[19]
  Activity: 72.36%
[20]
  Activity: 26.29%
[21]
  Activity: 1.35%
[22]
  Activity: 84.7%
[23]
  Activity: 13.99%
[24]
  Activity: 1.3%
[5]
  inhibition: Active
[25]
  inhibition: 21%
[26]
  inhibition: 7%
[27]
  inhibition: -8%

## COc1cc(C2C3=C(CCCC3=O)NC3=C2C(=O)CCC3)ccc1OCc1ccc(C(=O)O)cc1
[3]
  inhibition: 24%

## O=C1CCCC2=C1C(c1ccc(OCc3ccc(C(=O)O)cc3)cc1)c1ccc3ccccc3c1N2 (stereo not drawn)
[1]
  IC50: 34 µM

## CC1(C)CC(=O)C2=C(C1)NC1=C(C(=O)CC(C)(C)C1)C2c1ccc(O)c(Br)c1
[3]
  inhibition: 18%

## O=C(O)c1ccc(COc2ccccc2Br)cc1
[1]
  IC50: 81 µM

## CC1(C)CC(=O)C2=C(C1)NC1=C(C(=O)CC(C)(C)C1)C2c1ccc(OCc2ccc(C(=O)O)cc2)c(Br)c1
[1]
  IC50: 16 µM

## CC1=C(C#N)C(c2ccc(OCc3ccc(C(=O)O)cc3)cc2)C2=C(CCCC2=O)N1 (stereo not drawn)
[3]
  inhibition: 34%

## O=c1cc(O)c2sc3nc(-c4cccs4)cc(C(F)(F)F)c3c2[nH]1
[1]
  IC50: 19 µM
[2]
  inhibition: > 70%

## O=C1CCCC2=C1C(c1cc(Cl)c(OCc3ccc(C(=O)O)cc3)c(Cl)c1)C1=C(CCCC1=O)N2
[1]
  IC50: 34.7 µM
[6]
  Kd: 26.2 µM
[2]
  inhibition: > 70%
[28]
  Activity: Active
[29]
  Activity: Active

## COC(=O)C1=C(C)NC2=C(C(=O)CC(C)(C)C2)C1c1ccc(OCc2ccc(C(=O)O)cc2)cc1 (stereo not drawn)
[1]
  IC50: 31 µM
